The subject of the first assay is porcine pancreatic elastase-induced inflammation. Nature of the assay: Effect on porcine pancreatic elastase-induced inflammation (total cells in BALF). The assay is classed as in vivo. The following applies: single transairway dose 1 hour before porcine pancreatic elastase 100 μg/mouse; BALF 24 hours after elastase; ICR mice. As to the method:
To 4 to 6-week old ICR mice, a test compound was administered once through the transairway. Porcine pancreatic elastase at 100 μg/mouse was administered 1 hour after the administration of the test compound. Bronchoalveolar lavage fluid (BALF) was collected from the lungs 24 hours after the administration of porcine pancreatic elastase, and the total number of cells was measured.
Turning to `O=C(O[C@H]1C[N+]2(CCCc3ccccc3)CCC1CC2)C(O)(c1ccccc1)c1ccccc1` [Compound 1-18], the “total number of cells in BALF” value is recorded as “reduced in a dose-dependent manner”.

In the case of `O=C(O[C@@H]1C[N+]2(CCCc3ccccc3)CCC1CC2)C(O)(c1ccccc1)c1ccccc1` [Compound 1-19], the “total number of cells in BALF” value is on record as “reduced in a dose-dependent manner”. Regarding `O=C(OC1C[N+]2(CCCc3ccccc3)CCC1CC2)C(O)(c1ccccc1)c1ccccc1` (centres unmarked) [Compound 1-20], the “total number of cells in BALF” value is recorded as “reduced in a dose-dependent manner”. In the case of `O=C(O[C@H]1C[N+]2(CCCOc3ccccc3)CCC1CC2)C(O)(c1cccs1)c1cccs1` [aclidinium, reference compound], the “total number of cells in BALF” value is on record as “did not show any beneficial anti-inflammatory effects”.

The next assay concerns methacholine-induced airway constriction. In words: Effect on methacholine-induced airway constriction (airway resistance). The note with it: 47.9 μg/kg transairway, when exceeding 96 hours after the administration, ICR mice (FIG. 2). The assay is classed as in vivo. As to the method:
The increase of airway resistance by methacholine induction was measured. To 4 to 6-week old ICR mice, methacholine at 1 mg/mL was administered 5 times by spraying the methacholine for 20 seconds. After completion of the methacholine administration, the airway resistance was measured by a snap shot technique. All of the data were analyzed by using FlexiVent software.
The test compound at 47.9 μg/kg was administered to the mice through the transairway. The mice were exposed 5 times to nebulized methacholine 1 hour, 96 hours, and 120 hours after the administration, and the airway resistance at each time was measured.
`O=C(O[C@H]1C[N+]2(CCCOc3ccccc3)CCC1CC2)C(O)(c1cccs1)c1cccs1` [aclidinium, reference compound]: the “airway resistance after methacholine” value is on record as “did not reduce the airway resistance”.

The target of the next assay is T1, human M3 receptor (Homo sapiens, UniProt P20309).
T1 construct: expressed in transfected cells; host or cells: CHO cells (membrane preparation)
T1 sequence (P20309 whole entry): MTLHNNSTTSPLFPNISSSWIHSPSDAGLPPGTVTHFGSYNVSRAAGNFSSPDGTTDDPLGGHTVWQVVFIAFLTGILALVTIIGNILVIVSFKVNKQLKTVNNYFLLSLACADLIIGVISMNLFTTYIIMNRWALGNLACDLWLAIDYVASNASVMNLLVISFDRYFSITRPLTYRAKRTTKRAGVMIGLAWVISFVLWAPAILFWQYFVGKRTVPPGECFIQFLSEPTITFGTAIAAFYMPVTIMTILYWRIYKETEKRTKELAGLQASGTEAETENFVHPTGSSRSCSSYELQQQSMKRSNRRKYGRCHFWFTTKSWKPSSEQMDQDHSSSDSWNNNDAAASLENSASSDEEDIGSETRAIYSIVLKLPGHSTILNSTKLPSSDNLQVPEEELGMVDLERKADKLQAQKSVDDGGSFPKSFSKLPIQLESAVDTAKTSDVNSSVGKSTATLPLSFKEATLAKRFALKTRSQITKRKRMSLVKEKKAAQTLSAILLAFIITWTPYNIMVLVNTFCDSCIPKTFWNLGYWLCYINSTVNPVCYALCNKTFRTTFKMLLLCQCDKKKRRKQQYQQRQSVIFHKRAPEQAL
Nature of the assay: Human M3 receptor antagonist activity, [3H]NMS receptor binding.
Conditions: not given
The method, then:
Measurement of the receptor binding ability was performed by using a transgenic human M3 receptor expression CHO cell membrane, 1-[N-methyl-^3H] scopolamine methyl bromide ([^3H]NMS, specific activity of 82 Cimmol). Protein concentration of the cell membrane was 2 μg per well, concentration of the [^3H]NMS was 1.0 nM.
Range of the antagonist concentration (10^−4 to 10^−11 M) was tested by creating a comparison curve. Unspecific binding was measured in the presence of 1 μM of atropine.
The reagent was adjusted to a total volume of 100 μL with a binding buffer (phosphate buffer/saline). The mixture was incubated at room temperature for 2 hours so as to reach equilibrium, and then the resultant mixture was transplanted to a GF/C filter plate that had been pretreated with a washing buffer containing 0.05% polyethyleneimine for 1 hour.
The bound [^3H]NMS and the free[^3H]NMS were separated by rapid vacuum filtration, and washed three times with a rinse buffer (50 mM of Tris, 100 mM of saline, and pH of 7.4). The obtained filter was dried, and then onto the dried filter, a solid scintillator, MeltiLex A (manufactured by PerkinElmer, Inc.) was fused, and the measurement and quantification were performed by using a β-counter (MicroBeta microplate scintillation counter (Trilux)).
The Ki value was calculated by the following equation.
`O=C(OC1C[N+]2(CCOc3ccccc3F)CCC1CC2)C(O)(c1ccccc1)c1ccccc1` (centres unmarked) [Compound 1-4]: the Ki came out at 0.114 nM. Regarding `O=C(OC1C[N+]2(CCOc3ccccc3Cl)CCC1CC2)C(O)(c1ccccc1)c1ccccc1` (centres unmarked) [Compound 1-5], the inhibition constant (Ki) was determined as 2.39 nM.

In turn, `O=C(OC1C[N+]2(CCOc3ccccc3Br)CCC1CC2)C(O)(c1ccccc1)c1ccccc1` (centres unmarked) [Compound 1-6] yielded a Ki of 0.458 nM. This Ki is about 5.2-fold lower than that of the compound before. Same read-out and setting: with `O=C(OC1C[N+]2(CCCOc3ccc(F)cc3)CCC1CC2)C(O)(c1ccccc1)c1ccccc1` (centres unmarked) [Compound 1-29] the figure was 0.19 nM; with `O=C(OC1C[N+]2(CCCOc3ccc(Cl)cc3)CCC1CC2)C(O)(c1ccccc1)c1ccccc1` (centres unmarked) [Compound 1-30], 0.084 nM; with `O=C(OC1C[N+]2(CCCOc3ccc(Br)cc3)CCC1CC2)C(O)(c1ccccc1)c1ccccc1` (centres unmarked) [Compound 1-31], 0.32 nM. `O=C(OC1C[N+]2(CCCOc3ccc(I)cc3)CCC1CC2)C(O)(c1ccccc1)c1ccccc1` (centres unmarked) [Compound 1-32]: the inhibition constant Ki was 0.22 nM. This Ki and that of the compound before are within 1.5-fold of each other.

Consider `Cc1ccc(OCCC[N+]23CCC(CC2)C(OC(=O)C(O)(c2ccccc2)c2ccccc2)C3)cc1` (centres unmarked) [Compound 1-33], for which the inhibitory constant (Ki) came out at 0.058 nM. Turning to `O=C(OC1C[N+]2(CCCOc3ccc(C(F)(F)F)cc3)CCC1CC2)C(O)(c1ccccc1)c1ccccc1` (centres unmarked) [Compound 1-34], the Ki was found to be 2.7 nM. On the same count and under the same terms, the same measure for `COc1ccc(OCCC[N+]23CCC(CC2)C(OC(=O)C(O)(c2ccccc2)c2ccccc2)C3)cc1` (centres unmarked) [Compound 1-35]: 5.89 nM. Compound `O=C(OC1C[N+]2(CCCOc3ccc(OC(F)(F)F)cc3)CCC1CC2)C(O)(c1ccccc1)c1ccccc1` (centres unmarked) [Compound 1-36] yielded a Ki of 0.39 nM. `O=C(OC1C[N+]2(CCOCc3ccccc3)CCC1CC2)C(O)(c1ccccc1)c1ccccc1` (centres unmarked) [Compound 1-41]: the Ki turned out to be 0.12 nM.

Values taken from patent publication US10155755B2, “Quinuclidine derivative” (LTT BIO-PHARMA CO., LTD., priority 2015, dated 2018).
